Assay results reported in patent US20250351832A1, “PHYTOCHEMICALS AS BIOPESTICIDES AND BIOSTIMULANTS” (KAY BEE BIO ORGANICS PVT. LTD., priority 2024, published 2025).
Where two headings read alike, the source gives them in different places.

Key:
Helicoverpa armigera [1] = conditions: Helicoverpa armigera on okra fruits, dose 1 ml/gm/lit., 72 Hrs.; for Total No. of dead insect at 72 Hrs.: 10 insects/treatment, 4 replications; for % Corrected Mortality at 72 Hrs.: corrected for water control
chili seedlings = assay: Response of chili plants, greenhouse growth (Ex. 31); assay type: in vivo; conditions: chili seedlings, dose 1 ml/gm/lit; for CCI 5th Day / Plant Height (cm) 5th Day: 5th day after application; for CCI 10th Day / Plant Height (cm) 10th Day: 10th day after application; for CCI % Increase over pre on 10th Day / Plant Height % Increase over pre on 10th Day / Root Lenght (cm) 10th Day / Stem Girth % Increase over pre on 10th Day / Root Lenght % Increase over control: 10th day; for Root Lenght % Increase over control: vs water control
Thrips [2] = conditions: thrips on cotton plants, greenhouse, dose 1 ml/gm/lit. spray; for % Mortality at 48 Hrs. / Total No. of dead insect at 48 Hrs.: 48 hrs after application; for % Corrected Mortality at 48 Hrs.: corrected for water control
Mite [3] = conditions: Dose 1 ml/gm/lit.; for Total No. of dead insect at 48 Hrs.: 10 insects/treatment, 4 replications, okra leaves
Spodoptera litura [4] = conditions: Spodoptera litura on castor leaves; dose 1 ml/gm/lit.; 10 insects/treatment; 72 hrs after application
Mealy Bug [5] = conditions: mealy bug on cotton plants, green house, dose 1 ml/gm/lit. spray; for % Mortality at 48 Hrs. / Total No. of dead insect at 48 Hrs.: 48 hrs after application; for % Corrected Mortality at 48 Hrs.: corrected for water control
Thrips [6] = assay: whole plant or invertebrate; conditions: in Gossypium hirsutum, 48 h
Spodoptera litura [7] = conditions: Spodoptera litura 3rd instar on cabbage plants, dose 1 ml/gm/lit. spray; for % Mortality at 72 Hrs.: 72 hrs after application; for % Corrected Mortality at 72 Hrs.: corrected for water control
Aphid [8] = conditions: Aphids on cotton plants, green house; dose 1 ml/gm/lit.; 10 insects/plant, 10 plants/treatment; 48 hrs
Aphid [9] = conditions: Dose 1 ml/gm/lit.; for Total No. of dead insect at 48 Hrs.: 10 insects/treatment, 4 replications, cotton leaves
Alternaria alternata [10] = assay: Alternaria leaf spot/blight on inoculated tomato plants (Ex. 28); assay type: in vivo; conditions: tomato plants, Alternaria alternata; after 7 days; dose 1 ml/gm/lit
Alternaria alternata [11] = assay: In vitro poisoned food technique against fungus (Ex. 20); assay type: cell-based; conditions: poisoned food technique, PDA medium, dose 1 ml/gm/lit., after seven days; for inhibition of growth at 1 mL or g/L: vs untreated control, read-out: % Inhibition of growth
Spodoptera litura [12] = assay: whole plant or invertebrate; conditions: 72 h
Mealy Bug [13] = conditions: Mealy Bug on cotton leaves, dose 1 ml/gm/lit., 48 Hrs.; for Total No. of dead insect at 48 Hrs.: 10 insects/treatment, 4 replications; for % Corrected Mortality at 48 Hrs.: corrected for water control
Helicoverpa armigera [14] = conditions: Helicoverpa armigera 3rd instar on chickpea plants, dose 1 ml/gm/lit. spray; for % Mortality at 72 Hrs.: 72 hrs after application; for % Corrected Mortality at 72 Hrs.: corrected for water control
Mite [15] = conditions: mite on okra plants, green house, dose 1 ml/gm/lit. spray; for % Mortality at 48 Hrs. / Total No. of dead insect at 48 Hrs.: 48 hrs after application; for % Corrected Mortality at 48 Hrs.: corrected for water control
[16] = cited from earlier work; for Phytotonic Effect: Table 13, effect on plants, descriptive
Thrips [17] = conditions: Thrips on cotton leaves; dose 1 ml/gm/lit.; 10 insects/treatment; 48 hrs after application
tomato seedlings = assay: Response of tomato plants, greenhouse growth (Ex. 30); assay type: in vivo; conditions: tomato seedlings, dose 1 ml/gm/lit; for Plant Height 5th Day / Stem Girth 5th Day / CCI 5th Day: 5th day after application; for Plant Height 10th Day / Stem Girth 10th Day / CCI 10th Day: 10th day after application; for Plant Height % Increase over pre on 10th Day / Stem Girth % Increase over pre on 10th Day / CCI % Increase over pre on 10th Day / Root Length (cm) 10th Day / Root Length % Increase over control: 10th day; for Root Length % Increase over control: vs water control
Aphid [18] = assay: whole plant or invertebrate; conditions: 48 h
[19] = read-out: % Corrected Mortality at 48 Hrs.
[20] = read-out: % Mortality at 48 Hrs.
[21] = read-out: % Corrected Mortality at 72 Hrs.
[22] = read-out: % Mortality at 72 Hrs.
[23] = Table 13, descriptive, no test described

O=c1oc2c(O)c(O)cc3c(=O)oc4c(O)c(O)cc1c4c23 [Ellagic acid]
Total No. of dead insect at 72 Hrs. (Helicoverpa armigera [1]): 7.25
% Mortality at 72 Hrs. (Helicoverpa armigera [1]): 72.50%
% Corrected Mortality at 72 Hrs. (Helicoverpa armigera [1]): 72.50%
CCI 5th Day (chili seedlings): 16.35
Plant Height (cm) 5th Day (chili seedlings): 5.77 cm
CCI % Increase over pre on 10th Day (chili seedlings): 67.49%
Plant Height % Increase over pre on 10th Day (chili seedlings): 62.60%
Root Lenght (cm) 10th Day (chili seedlings): 3.92 cm
Stem Girth % Increase over pre on 10th Day (chili seedlings): 51.20%
CCI 10th Day (chili seedlings): 16.95
Plant Height (cm) 10th Day (chili seedlings): 6 cm
Root Lenght % Increase over control (chili seedlings): 43.41%
% Mortality at 48 Hrs. (Thrips [2]): 32.50%
Total No. of dead insect at 48 Hrs. (Thrips [2]): 32.50
% Corrected Mortality at 48 Hrs. (Thrips [2]): 25.00%
Total No. of dead insect at 48 Hrs. (Mite [3]): 5.00
% Corrected Mortality at 48 Hrs. (Mite [3]; 48 hrs): 45.95%
Total No. of dead insect at 72 Hrs. (Spodoptera litura [4]): 6.00
% Mortality at 48 Hrs. (Mealy Bug [5]): 57.50%
Total No. of dead insect at 48 Hrs. (Mealy Bug [5]): 57.50
% Corrected Mortality at 48 Hrs. (Mealy Bug [5]): 52.78%
mortality at 1 mL or g/L (Thrips [6]; [19]): 25.7%
mortality at 1 mL or g/L (Thrips [6]; [20]): 35%
% Mortality at 72 Hrs. (Spodoptera litura [7]): 55.00%
% Corrected Mortality at 72 Hrs. (Spodoptera litura [7]): 52.63%
Total No. of dead insect at 48 Hrs. (Aphid [8]): 75.00
Total No. of dead insect at 48 Hrs. (Aphid [9]): 7.25
% Corrected Mortality at 48 Hrs. (Aphid [9]; 48 hrs): 68.57%
% Mortality at 48 Hrs. (Aphid [9]; 48 hrs): 72.50%
% Disease reduction over Control (Alternaria alternata [10]): 66.12%
Mean colony Diameter (mm) (Alternaria alternata [11]): 44.00 mm
inhibition of growth at 1 mL or g/L (Alternaria alternata [11]): 50%
mortality at 1 mL or g/L (Spodoptera litura [12]; [21]): 57.9%
mortality at 1 mL or g/L (Spodoptera litura [12]; [22]): 60%
Total No. of dead insect at 48 Hrs. (Mealy Bug [13]): 6.00
% Mortality at 48 Hrs. (Mealy Bug [13]): 60.00%
% Corrected Mortality at 48 Hrs. (Mealy Bug [13]): 57.89%
% Mortality at 72 Hrs. (Helicoverpa armigera [14]): 70.00%
% Corrected Mortality at 72 Hrs. (Helicoverpa armigera [14]): 70.00%
% Mortality at 48 Hrs. (Mite [15]): 52.50%
Total No. of dead insect at 48 Hrs. (Mite [15]): 52.50
% Corrected Mortality at 48 Hrs. (Mite [15]): 50.00%
Acaricidal Activity - Mode of action [16, 23]: Shows acaricidal activities
Antifungal Activity - Mode of action [16, 23]: Fungicidal activities
Antioxidant Activity - Mode of action [16, 23]: Exhibit antioxidant
Bactericidal Activity - Mode of action [16, 23]: Exhibits bactericidal
Insecticidal Activities - Mode of action [16, 23]: Inhibit the growth, food
Phytotonic Effect [16]: Reduces plant
Total No. of dead insect at 48 Hrs. (Thrips [17]): 3.50
Plant Height 5th Day (tomato seedlings): 7.09 cm
Stem Girth 5th Day (tomato seedlings): 1.54 mm
Plant Height 10th Day (tomato seedlings): 8.18 cm
Stem Girth 10th Day (tomato seedlings): 2.19 mm
Plant Height % Increase over pre on 10th Day (tomato seedlings): 36.11%
Stem Girth % Increase over pre on 10th Day (tomato seedlings): 62.87%
CCI 5th Day (tomato seedlings): 13.39
CCI % Increase over pre on 10th Day (tomato seedlings): 28.96%
Root Length (cm) 10th Day (tomato seedlings): 4.48 cm
CCI 10th Day (tomato seedlings): 14.56
Root Length % Increase over control (tomato seedlings): 34.64%
mortality at 1 mL or g/L (Aphid [18]; [19]): 70.6%
mortality at 1 mL or g/L (Aphid [18]; [20]): 75%

CCCCCCCCCC(C)=O [Embodiment 2-undecanone, 2-undecanone]
Total No. of dead insect at 72 Hrs. (Helicoverpa armigera [1]): 5.50
% Mortality at 72 Hrs. (Helicoverpa armigera [1]): 55.00%
% Corrected Mortality at 72 Hrs. (Helicoverpa armigera [1]): 55.00%
CCI 5th Day (chili seedlings): 13.57
Plant Height (cm) 5th Day (chili seedlings): 5.97 cm
CCI % Increase over pre on 10th Day (chili seedlings): 70.42%
Plant Height % Increase over pre on 10th Day (chili seedlings): 68.11%
Root Lenght (cm) 10th Day (chili seedlings): 4.44 cm
Stem Girth % Increase over pre on 10th Day (chili seedlings): 60.61%
CCI 10th Day (chili seedlings): 15.15
Plant Height (cm) 10th Day (chili seedlings): 6.59 cm
Root Lenght % Increase over control (chili seedlings): 62.21%
% Mortality at 48 Hrs. (Thrips [2]): 47.50%
Total No. of dead insect at 48 Hrs. (Thrips [2]): 47.50
% Corrected Mortality at 48 Hrs. (Thrips [2]): 41.67%
Total No. of dead insect at 48 Hrs. (Mite [3]): 3.00
% Corrected Mortality at 48 Hrs. (Mite [3]; 48 hrs): 24.32%
% Mortality at 48 Hrs. (Mite [3]; 48 hrs): 30.00%
Total No. of dead insect at 72 Hrs. (Spodoptera litura [4]): 4.00
% Mortality at 48 Hrs. (Mealy Bug [5]): 57.50%
Total No. of dead insect at 48 Hrs. (Mealy Bug [5]): 57.50
% Corrected Mortality at 48 Hrs. (Mealy Bug [5]): 52.78%
mortality at 1 mL or g/L (Thrips [6]; [19]): 42.9%
mortality at 1 mL or g/L (Thrips [6]; [20]): 50%
% Mortality at 72 Hrs. (Spodoptera litura [7]): 42.50%
% Corrected Mortality at 72 Hrs. (Spodoptera litura [7]): 39.47%
Total No. of dead insect at 48 Hrs. (Aphid [8]): 67.50
Total No. of dead insect at 48 Hrs. (Aphid [9]): 6.75
% Corrected Mortality at 48 Hrs. (Aphid [9]; 48 hrs): 62.86%
% Disease reduction over Control (Alternaria alternata [10]): 58.68%
Mean colony Diameter (mm) (Alternaria alternata [11]): 52.00 mm
inhibition of growth at 1 mL or g/L (Alternaria alternata [11]): 40.9%
mortality at 1 mL or g/L (Spodoptera litura [12]; [21]): 36.8%
mortality at 1 mL or g/L (Spodoptera litura [12]; [22]): 40%
Total No. of dead insect at 48 Hrs. (Mealy Bug [13]): 5.50
% Mortality at 48 Hrs. (Mealy Bug [13]): 55.00%
% Corrected Mortality at 48 Hrs. (Mealy Bug [13]): 52.63%
% Mortality at 72 Hrs. (Helicoverpa armigera [14]): 52.50%
% Corrected Mortality at 72 Hrs. (Helicoverpa armigera [14]): 52.50%
% Mortality at 48 Hrs. (Mite [15]): 27.50%
Total No. of dead insect at 48 Hrs. (Mite [15]): 27.50
% Corrected Mortality at 48 Hrs. (Mite [15]): 23.68%
Antifungal Activity - Mode of action [16, 23]: Antifungal and repellent
Bactericidal Activity - Mode of action [16, 23]: Moderate anti-bacterial
Insecticidal Activities - Mode of action [16, 23]: Insecticidal action,
Phytotonic Effect [16]: Increasing root
Total No. of dead insect at 48 Hrs. (Thrips [17]): 5.00
Plant Height 5th Day (tomato seedlings): 6.48 cm
Stem Girth 5th Day (tomato seedlings): 1.61 mm
Plant Height 10th Day (tomato seedlings): 7.56 cm
Stem Girth 10th Day (tomato seedlings): 2.40 mm
Plant Height % Increase over pre on 10th Day (tomato seedlings): 40.52%
Stem Girth % Increase over pre on 10th Day (tomato seedlings): 68.29%
CCI 5th Day (tomato seedlings): 13.42
CCI % Increase over pre on 10th Day (tomato seedlings): 30.95%
Root Length (cm) 10th Day (tomato seedlings): 4.54 cm
CCI 10th Day (tomato seedlings): 15.23
Root Length % Increase over control (tomato seedlings): 36.48%
mortality at 1 mL or g/L (Aphid [18]; [19]): 61.8%
mortality at 1 mL or g/L (Aphid [18]; [20]): 67.5%
